Laboratory results reported in patent US20260306485A1, “COMPOSITIONS AND METHODS FOR THE TREATMENT OF CONGENITAL ADRENAL HYPERPLASIA” (CRINETICS PHARMACEUTICALS, INC., priority 2023, published 2026).

Legend:
Format in all cases: in vivo, human
[1] = system: serum androstenedione (A4); assay: Phase 2 CAH study, Cohort 1 initial analysis: morning serum androstenedione (A4); conditions: 80 mg QD oral; for A4 reduction (mean±SD): morning, baseline 116 to 604 ng/dL
Description: The primary efficacy objective is to evaluate the efficacy of CRN04894, measured by the change from baseline in serum androstenedione (A4), with the primary efficacy endpoint being the change from baseline in the morning (before 11:00 AM) serum A4 at week 12.
(§1) Up to approximately 30 participants will be enrolled in the study. Each cohort will enroll at least 6 participants, with a possible expansion of up to an additional 6 participants in cohorts 1 and 2, to a maximum of 12 evaluable participants in those cohorts. The treatment duration will be up to Day 84 (12 Weeks) per participant. The total study duration will be up to 140 days (up to 4 weeks of screening, 12 weeks of treatment, and 4 weeks of follow-up) per participant. The visit frequency will be at Screening (2 visits), on Day 1 (Baseline), and at Weeks 2 (Day 14), 6 (Day 42), and 12 (Day 84). A Safety Follow-up Visit will occur 2 weeks following the last dose of CRN04894 (Week 14; Day 98), and a telephone call to collect any adverse events (AEs) will occur at 4 weeks after the last dose of CRN04894 (Week 16, Day 112). The study design is discussed in detail below.
(§2) Participants in all cohorts will continue their preexisting glucocorticoid replacement dosing regimens/doses throughout the study. In addition, starting the night of Day 1 and ending the night before the Week 12/end of treatment (EOT) visit, each cohort will administer CRN04894 between 22:00-24:00 (at approximately the same time each night) once daily (QD) before sleep.
(§3) Participants in Cohort 1 will receive 80 mg of CRN04894 QD. After at least 3 participants have completed 2 weeks of dosing with 80 mg of CRN04894 QD in Cohort 1, an interim analysis evaluating PD, PK, efficacy, and safety will be reviewed by the Safety Review Committee (SRC). If it is safe to continue, the SRC will recommend dosing of 120 mg of CRN04894 in Cohort 2. However, the SRC can recommend a lower dose (i.e., 40 mg of CRN04894 QD) in Cohort 2 based on review of safety data. The SRC also has the option to recommend increasing enrollment up to a total of 12 participants each in Cohorts 1 and/or 2. In this situation, expanded enrollment in the cohort will be completed, and data from the expanded cohort will be reviewed by the SRC prior to enrollment in the subsequent cohort.
(§4) A pharmacodynamic biomarker panel will be drawn. The biomarker panel will include the following: • 17-hydroxyprogesterone (17-OHP); • Adrenocorticotropic hormone (ACTH) (plasma); • Testosterone; • Androstenedione (A4); • Dehydroepiandrosterone (DHEA); • Dehydroepiandrosterone sulfate (DHEA-S); • 11-deoxycorticosterone (11-DOC); • 21-deoxycortisol; • 11β-hydroxyandrostenedione (11-OHA4); • 11-ketoandrostenedione (11-ketoA4); • 11β-hydroxytestosterone (11-OHT); • 11-ketotestosterone (11-ketoT); • Aldosterone; and • Renin.
(§5) Visits 2-7: Prior to receiving the morning GC replacement dose, a total of 2 blood draws (approximately 1 hour apart) for PD biomarkers will be drawn. The drawing of the PD biomarkers should be one of the first visit activities performed at the start of the visit. Visits should start as early in the morning as possible (preferably 07:00-08:00), so as to minimize any delay in administration of the morning GC dose and the timing of each study visit should be as consistent as possible. The second set of PD biomarkers should be drawn no later than 11:00 am.
(§6) The initial analysis summarizes the data of four participates (n=4) of Cohort 1 who received 80 mg of CRN04894 QD. There were three female/women participants (n=3) and one male/men participant (n=1).
(§7) Cohort 1 initial analysis of % changes in values from baseline of morning serum A4, morning serum 17-OHP, morning serum testosterone in females, morning serum testosterone in males, and morning serum A4/testosterone in males are presented in Table 4 below. These changes from baseline are also depicted in FIG. 1, FIG. 2, FIG. 4, FIG. 5, and FIG. 10, respectively. […]

[2] = system: serum 17-hydroxyprogesterone (17-OHP); assay: Phase 2 CAH study, Cohort 1 initial analysis: morning serum 17-hydroxyprogesterone (17-OHP); conditions: 80 mg QD oral; for 17-OHP reduction (mean±SD): baseline 4740 to 6905 ng/dL
Description: The secondary efficacy objective is to evaluate the efficacy of CRN04894, measured by the change from baseline in serum 17-hydroxyprogesterone (17-OHP), with the secondary efficacy endpoint being the change from baseline in the morning (before 11:00 AM) serum 17-OHP at week 12.
as §1, §2, §3, §4, §5, §6, §7

[3] = system: serum testosterone (female/women); assay: Phase 2 CAH study, Cohort 1 initial analysis: morning serum testosterone, female participants; conditions: 80 mg QD oral; for testosterone reduction (mean±SD), female participants: morning, baseline 114 ng/dL
Description: as §1, §2, §3, §4, §5, §6
(§8) Cohort 1 initial analysis of % changes in values from baseline of morning serum A4, morning serum 17-OHP, morning serum testosterone in females, morning serum testosterone in males, and morning serum A4/testosterone in males are presented in Table 4 below. These changes from baseline are also depicted in FIG. 1, FIG. 2, FIG. 4, FIG. 5, and FIG. 10, respectively.
(§9) Patients (aged ≥18 to 75, ≥16 years in USA) with classical CAH on a stable dose of glucocorticoid replacement for at least six months were enrolled and received 80 mg once daily, oral CRN04894 for 12 weeks followed by a four-week washout. […]

[4] = system: serum testosterone (male/men); assay: Phase 2 CAH study, Cohort 1 initial analysis: morning serum testosterone, male participants; conditions: 80 mg QD oral, n=1
Description: as §1, §2, §3, §4
(§10) Visits 2-7: Prior to receiving the morning GC replacement dose, a total of 2 blood draws (approximately 1 hour apart) for PD biomarkers will be drawn. […]

[5] = system: serum A4/testosterone (male/men); assay: Phase 2 CAH study, Cohort 1 initial analysis: morning serum A4/testosterone, male participants; conditions: 80 mg QD oral, n=1; for A4/T ratio in the patient: baseline 0.3, normal <0.2
Description: as §1, §2, §3, §4, §5, §6, §8, §9

[6] = system: plasma adrenocorticotropic hormone (ACTH); assay: Phase 2 CAH study, Cohort 1 initial analysis: morning plasma ACTH; conditions: 80 mg QD oral; for variation in ACTH levels during treatment: morning, baseline 155 to 1009 pg/mL
Description: as §1, §2, §3, §4, §10

[7] = Phase 2 CAH study, Cohort 1 initial analysis: menstruation; conditions: 80 mg QD oral; three female participants in cohort
Description: as §1, §2
Participants in Cohort 1 will receive 80 mg of CRN04894 QD. […]

CCOc1ccccc1-c1ccc(N2CCN(C(=O)C3(C(F)(F)F)CCC3)C[C@H]2CC)c(C(=O)N[C@@H]2CN3CCC2CC3)n1 [CRN04894, N-[(3S)-1-Azabicyclo[2.2.2]octan-3-yl]-6-(2-ethoxyphenyl)-3-[(2R)-2-ethyl-4-[1-(trifluoromethyl)cyclobutanecarbonyl]-piperazin-1-yl]pyridine-2-carboxamide]
% Change in morning serum A4 ([1]; Mean, Week 2, n=4): −86% | % Change in morning serum A4 ([1]; Mean, Week 6, n=4): −90% | % Change in morning serum A4 ([1]; Mean, Week 12, n=2): −88% | % Change in morning serum A4 ([1]; Median, Week 2, n=4): −88% | % Change in morning serum A4 ([1]; Median, Week 6, n=4): −94% | % Change in morning serum A4 ([1]; Median, Week 12, n=2): −88% | A4 reduction (mean±SD) ([1]; Week 2, n=4): 86%±10% | A4 reduction (mean±SD) ([1]; Week 6, n=4): 90%±9% | A4 reduction (mean±SD) ([1]; Week 12, n=2): 88%±15% | A4 reduction, onset and maintenance ([1]; all participants): rapid and profound A4 reduction within two weeks, which were maintained for the duration of therapy | A4 levels relative to upper limit of normal ([1]; all visits following treatment, normal 30-200 ng/dL females, 40-150 ng/dL males): all A4 levels ending below the upper limit of normal (<ULN) at all visits following treatment | % Change in morning 17-OHP ([2]; Mean, Week 2, n=4): −96% | % Change in morning 17-OHP ([2]; Mean, Week 6, n=4): −97% | % Change in morning 17-OHP ([2]; Mean, Week 12, n=2): −83% | % Change in morning 17-OHP ([2]; Median, Week 2, n=4): −96% | % Change in morning 17-OHP ([2]; Median, Week 6, n=4): −97% | % Change in morning 17-OHP ([2]; Median, Week 12, n=2): −83% | 17-OHP reduction (mean±SD) ([2]; Week 2, n=4): 96%±2% | 17-OHP reduction (mean±SD) ([2]; Week 6, n=4): 97%±0.3% | 17-OHP reduction (mean±SD) ([2]; Week 12, n=2): 83%±22% | 17-OHP reduction, onset and maintenance ([2]; all participants): rapid and profound 17-OHP reduction within two weeks, which were maintained for the duration of therapy | % Change in morning testosterone (female/women) ([3]; Mean, Week 2, n=3): −61% | % Change in morning testosterone (female/women) ([3]; Mean, Week 6, n=3): −65% | % Change in morning testosterone (female/women) ([3]; Mean, Week 12, n=2): −97% | % Change in morning testosterone (female/women) ([3]; Median, Week 2, n=3): −86% | % Change in morning testosterone (female/women) ([3]; Median, Week 6, n=3): −96% | % Change in morning testosterone (female/women) ([3]; Median, Week 12, n=2): −97% | testosterone reduction (mean±SD), female participants ([3]; Week 2, n=3): 61%±53% | testosterone reduction (mean±SD), female participants ([3]; Week 6, n=3): 65%±56% | testosterone reduction (mean±SD), female participants ([3]; Week 12, n=2): 97%±1% | % Change in morning testosterone (male/men) ([4]; Mean, Week 2): 9% | % Change in morning testosterone (male/men) ([4]; Mean, Week 6): 11% | % Change in morning testosterone (male/men) ([4]; Median, Week 2): 9% | % Change in morning testosterone (male/men) ([4]; Median, Week 6): 11% | % Change in morning A4/testosterone (male/men) ([5]; Mean, Week 2): −73% | % Change in morning A4/testosterone (male/men) ([5]; Mean, Week 6): −79% | % Change in morning A4/testosterone (male/men) ([5]; Median, Week 2): −73% | % Change in morning A4/testosterone (male/men) ([5]; Median, Week 6): −79% | A4/T ratio in the patient ([5]; week 2): 0.08 | A4/T ratio in the patient ([5]; week 6): 0.06 | ACTH levels, trend during treatment ([6]; in words): Modest variations in ACTH levels without a consistent directional trend | variation in ACTH levels during treatment ([6]; Week 2, n=4): −25%±57% | variation in ACTH levels during treatment ([6]; Week 6, n=4): 51%±87% | variation in ACTH levels during treatment ([6]; Week 12, n=2): −13%±67% | menstruation in female participants [7]: Two female participants in this cohort menstruated for the first time in over 2 years
